{"source": "patent US20100305053A1", "about": "“USE OF […] OF A DERIVATIVE THEREOF FOR THE PREVENTION AND/OR TREATMENT OF SLACKENED SKIN” (L'OREAL, priority 2007, published 2010)", "key": {"[1]": {"tested_on": "collagen VII", "experiment": "Collagen VII immunolabeling (immunofluorescence) of skin sections after 24 weeks of dietary hesperidin", "format": "in vivo", "details": "for Number of sections (out of 12) with labeling of the DEJ and labeling in the papillary dermis / % of sections with labeling of the DEJ and labeling in the papillary dermis: collagen VII; for Number of sections (out of 12) with labeling of the DEJ and labeling in the papillary dermis: control group E: 3; for % of sections with labeling of the DEJ and labeling in the papillary dermis: control group E: 25", "experimental": "(§1) The study was carried out on elderly, healthy individuals subjected, for 24 weeks, to a diet optionally comprising hesperidin.\n(§2) The first group of individuals (group E) is a control group subjected to a standard diet free of hesperidin.\n(§3) The second group of individuals (group F) is a group subjected to a diet comprising 0.1% by weight of hesperidin relative to the standard diet, which corresponds to 50 mg of hesperidin per kg of body weight of the individual and per day.\n(§4) The third group of individuals (group G) is a group subjected to a standard diet comprising 0.5% by weight of hesperidin relative to the standard diet, which corresponds to 250 mg of hesperidin per kg of body weight of the individual and per day.\n(§5) Skin samples were taken and analyzed in order to study, by immunofluorescence, the expression of the collagen IV and collagen VII skin markers characteristic of the dermoepidermal junction.\nThe collagen VII immunolabeling is carried out as indicated previously, but using “anticollagen type VII polyclonal” [EUROMEDEX (sold by Chemicon), dilution 1/500] as primary antibody and “anti-mouse Ig FITC” [Dake, dilution 1/100] as secondary antibody."}, "[2]": {"tested_on": "collagen IV", "experiment": "Collagen IV immunolabeling (immunofluorescence) of skin sections after 24 weeks of dietary hesperidin", "format": "in vivo", "details": "for Number of sections (out of 12) with medium and strong labeling of the DEJ / % of sections with medium and strong labeling of the DEJ: collagen IV; for Number of sections (out of 12) with medium and strong labeling of the DEJ: control group E: 6; for % of sections with medium and strong labeling of the DEJ: control group E: 50", "experimental": "as §1, §2, §3, §4, §5\nThe immunolabeling of collagen IV is carried out by immunohistochemistry with an “anticollagen type IV polyclonal” primary antibody [Rockland (sold by Tebu-Bio), dilution 1/50] and an “anti-rabbit FITC” secondary antibody [Santa Cruz, dilution 1/100].\nThe labeling was carried out on frozen sections 5 μm thick derived from skin samples.\nThe slides were recovered in PBS for five minutes, incubated with the primary antibody for one hour at ambient temperature in the dark, rinsed in PBS twice for five minutes, then incubated with the secondary antibody for one hour at ambient temperature in the dark, and then again rinsed in PBS twice for five minutes.\nThe slides were then mounted with Vectashield (Vector) containing DAPI ([…]), and then covered with a coverslip."}, "[3]": {"details": "group F, diet with 0.1% by weight hesperidin (50 mg/kg/day), 24 weeks"}, "[4]": {"details": "group G, diet with 0.5% by weight hesperidin (250 mg/kg/day), 24 weeks"}}, "data": [{"smiles": "COc1ccc([C@@H]2CC(=O)c3c(O)cc(O[C@@H]4O[C@H](CO[C@@H]5O[C@@H](C)[C@H](O)[C@@H](O)[C@H]5O)[C@@H](O)[C@H](O)[C@H]4O)cc3O2)cc1O", "note": "[Hesperidin, (S)-7-[[6-O-(6-deoxy-α-L-mannopyranosyl)-β-D-glucopyranosyl]oxy]-2,3-dihydro-5-hydroxy-2-(3-hydroxy-4-methoxyphenyl)-4H-1-benzopyran-4-one]", "values": [{"measurement": "Number of sections (out of 12) with labeling of the DEJ and labeling in the papillary dermis", "setting": "[1]; [3]", "value": 6}, {"measurement": "% of sections with labeling of the DEJ and labeling in the papillary dermis", "setting": "[1]; [3]", "value": 50, "unit": "%"}, {"measurement": "Number of sections (out of 12) with labeling of the DEJ and labeling in the papillary dermis", "setting": "[1]; [4]", "value": 11}, {"measurement": "% of sections with labeling of the DEJ and labeling in the papillary dermis", "setting": "[1]; [4]", "value": 92, "unit": "%"}, {"measurement": "Collagen VII fluorescence intensity at the DEJ and in the papillary dermis", "setting": "[1]; more particularly group G (0.5% hesperidin diet), FIG. 2", "value": "increase in fluorescence intensity"}, {"measurement": "Effect on collagen network in the dermal tissue and collagen VII expression (conclusion)", "setting": "[1]; oral, diet, 24 weeks", "value": "increase in the expression of collagen VII"}, {"measurement": "Number of sections (out of 12) with medium and strong labeling of the DEJ", "setting": "[2]; [3]", "value": 7}, {"measurement": "% of sections with medium and strong labeling of the DEJ", "setting": "[2]; [3]", "value": 58, "unit": "%"}, {"measurement": "Number of sections (out of 12) with medium and strong labeling of the DEJ", "setting": "[2]; [4]", "value": 12}, {"measurement": "% of sections with medium and strong labeling of the DEJ", "setting": "[2]; [4]", "value": 100, "unit": "%"}, {"measurement": "Effect on collagen network in the dermal tissue and collagen IV expression (conclusion)", "setting": "[2]; oral, diet, 24 weeks", "value": "increase in the expression of the collagen IV"}, {"measurement": "Expression of collagen IV in the basal lamina compared with the control", "setting": "[2]; the two treated groups (F and G), FIG. 1", "value": "greater expression of collagen IV"}]}]}
